In US6787651B2, “Substituted indoles, pharmaceutical compounds containing such indoles and their use as PPAR-γ binding agents” (SmithKline Beecham Corporation, priority 2000, dated 2004):
Where two headings read alike, the source gives them in different places.

Key:
[1] = target: T1, PPARγ ligand binding domain (LBD) (amino acids 195-475) (Homo sapiens, UniProt P37231); test: PPAR-γ binding assay (spin plate / gel filtration binding assay, displacement of [3H]BRL 49653)
T1 construct: polyHis; made in house; host or cells: Escherichia coli
T1 sequence (P37231 195-475 isoform P37231-2): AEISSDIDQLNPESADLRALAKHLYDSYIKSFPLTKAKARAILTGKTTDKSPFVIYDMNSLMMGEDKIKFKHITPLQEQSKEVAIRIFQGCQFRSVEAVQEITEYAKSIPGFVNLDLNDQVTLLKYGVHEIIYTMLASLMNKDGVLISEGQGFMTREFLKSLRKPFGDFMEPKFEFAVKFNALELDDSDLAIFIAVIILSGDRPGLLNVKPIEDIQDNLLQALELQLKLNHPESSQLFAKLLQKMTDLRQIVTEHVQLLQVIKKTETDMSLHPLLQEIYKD
Procedure: The activity of a given compound in binding to PPAR-γ can be assayed routinely according to procedures known in the art. […] The PPAR-γ binding assay described below was used to determine the PPAR-γ binding activities of the compounds of the invention.
Compounds were tested for their ability to bind to PPARγ using a spin plate assay (gel filtration binding assay). […] Each compound was tested in triplicate. […] The plates were centrifuged (Beckman GS-6R) at 2500 rpm for 5 minutes, 170 μl Scitisafe® scintillation fluid (Fisher) was added to each well, the plates were sealed, and after 1 hour, were counted in a Wallac MicroBeta counter. The amount of nonspecific binding, as assessed by control wells containing 10 μM of the corresponding unlabeled ligand, was subtracted from each data point. For each compound tested, the data was averaged and plots of ligand concentration versus CPM of radioligand bound were constructed. Apparent IC50 values were estimated from nonlinear least-squares fit of the data assuming simple competitive binding.

[2] = read-out: IC50 range in the PPAR-γ Binding Assay

| Structure (SMILES) | melting point | IC50 [1, 2] | IC50 [1] |
| --- | --- | --- | --- |
| COc1cccc(Cn2c(C(=O)O)c(-c3ccc(OCC4CC4)cc3)c3cc(OCc4ccccc4)ccc32)c1 [Example 229, 5-(Benzyloxy)-3-[4-(cyclopropylmethoxy)phenyl]-1-(3-methoxybenzyl)-1H-indole-2-carboxylic acid] | 185 to 187 °C | – | – |
| COc1cccc(Cn2c(C(=O)O)c(-c3ccc(C(C)(C)C)cc3)c3cc(NC(=O)NCC4CC4)ccc32)c1 [Example 270] | 141 to 142 °C | 10 to 10000 nM | – |
| Cc1cccc(-c2c(C(=O)O)n(Cc3cccc(OCC4CC4)c3)c3ccccc23)c1 [Example 299] | 58 to 60 °C | 0.1 to 9.99 nM | – |
| COc1cccc(Cn2c(C(=O)O)c(-c3ccc(C(C)(C)C)cc3)c3cc(NC(=O)C4CC4)ccc32)c1 [Example 268] | 194 to 196 °C | 0.1 to 9.99 nM | – |
| COc1cccc(Cn2c(C(=O)O)c(-c3ccc(C(=O)NC4CCCCC4)cc3)c3ccccc32)c1 [Example 325] | 245 °C | 10 to 10000 nM | – |
| COc1cccc(Cn2c(C(=O)O)c(-c3ccc(C(=O)NC4CC4)cc3)c3ccccc32)c1 [Example 323, 3-[4-(N-cyclopropylcarbamoyl)phenyl]-1-[(3-methoxyphenyl)methyl]indole-2-carboxylic acid] | 237 °C | 10 to 10000 nM | – |
| COc1ccc(-c2c(C(=O)NS(=O)(=O)c3ccc(Cl)cc3)n(Cc3cccc(C(F)(F)F)c3)c3ccccc23)cc1 [Example 359] | 166 °C | 0.1 to 9.99 nM | – |
| COc1cccc(Cn2c(C(=O)O)c(-c3ccc(C(C)(C)C)cc3)c3cc4c(cc32)OCO4)c1 [Example 277] | 179.1 to 179.7 °C | 0.1 to 9.99 nM | – |
| COc1cccc(Cn2c(C(=O)O)c(-c3ccc(C(C)(C)C)cc3)c3cccc(NC(=O)C4CC4)c32)c1 [Example 292] | 151 °C | 10 to 10000 nM | – |
| COc1cccc(Cn2c(C(=O)O)c(-c3ccc(C(C)(C)C)cc3)c3cccc(NC(=O)NC4CC4)c32)c1 [Example 291] | 168 °C (dec.) | 10 to 10000 nM | – |
| O=C(O)c1c(-c2cccc(OCC3CC3)c2)c2ccccc2n1Cc1ccc(F)cc1 [Example 339, 3-[3-(Cyclopropylmethoxy)phenyl]-1-[(4-fluorophenyl)methyl]indole-2-carboxylic Acid] | 200 to 202 °C | 0.1 to 9.99 nM | – |
| COc1cccc(Cn2c(C(=O)O)c(-c3ncc(C(C)=O)s3)c3ccccc32)c1 [Example 343] | 218 °C (dec.) | 0.1 to 9.99 nM | – |
| COc1ccc(-c2c(C(=O)NS(=O)(=O)c3ccc(C)cc3)n(Cc3cccc(C(F)(F)F)c3)c3ccccc23)cc1 [Example 358] | 162 °C | 10 to 10000 nM | – |
| COc1cccc(Cn2c(C(=O)O)c(-c3cccc(NC(=O)C4CCCC4)c3)c3ccccc32)c1 [Example 327] | 133 °C (dec.) | 10 to 10000 nM | – |
| O=C(O)c1c(C#Cc2ccccc2)c2ccccc2n1Cc1cccc(C(F)(F)F)c1 [Example 244] | 165 to 167 °C | 0.1 to 9.99 nM | – |
| COc1cccc(Cn2c(C(=O)O)c(-c3ccc(C(=O)NC4CCCC4)cc3)c3ccccc32)c1 [Example 324] | 230 °C | 10 to 10000 nM | – |
| O=C(O)c1c(CC2CC2)c2ccccc2n1Cc1cccc(C(F)(F)F)c1 [Example 264] | 174 to 175 °C | 0.1 to 9.99 nM | – |
| COc1cccc(Cn2c(C(=O)O)c(-c3ccc(C(C)(C)C)cc3)c3cc(C4CCCC4)ccc32)c1 [Example 273] | 192 to 193 °C | 0.1 to 9.99 nM | – |
| COc1cccc(Cn2c(C(=O)O)c(-c3cccc(OCC4CC4)c3)c3ccccc32)c1 [Example 345] | 147 to 148 °C | 0.1 to 9.99 nM | – |
| COc1ccc(Cc2c(C(=O)O)n(CC3CC3)c3ccccc23)cc1 [Example 230, 1-(Cyclopropylmethyl)-3-[(4-methoxyphenyl)methyl]indole-2-carboxylic acid] | 162 to 163 °C | 10 to 10000 nM | – |

| Structure (SMILES) | melting point | IC50 [1, 2] | IC50 [1] |
| --- | --- | --- | --- |
| COc1ccc(C(=O)c2c(C(=O)O)n(Cc3cccc(OC)c3)c3ccccc23)cc1 [Example 241] | 68 to 69 °C | – | 10 to 10000 nM |
| CC(=O)c1cccc(-c2c(C(=O)O)n(Cc3cccc(OCC4CC4)c3)c3ccccc23)c1 [Example 290] | 103 °C | 0.1 to 9.99 nM | – |
| COc1cccc(Cn2c(C(=O)O)c(CC3CC3)c3ccccc32)c1 [Example 265] | 165 to 167 °C | 0.1 to 9.99 nM | – |
| COc1cccc(Cn2c(C(=O)O)c(-c3cccc(N(C)C(=O)C4CC4)c3)c3ccccc32)c1 [Example 295] | 200 °C | 10 to 10000 nM | – |
| COc1cccc(Cn2c(C(=O)O)c(-c3ccc(C(C)(C)C)cc3)c3c(OCC4CC4)cccc32)c1 [Example 296] | 162 °C | 10 to 10000 nM | – |
| O=C(O)c1c(C=C2CC2)c2ccccc2n1Cc1cccc(C(F)(F)F)c1 [Example 231, 3-(Cyclopropylidenemethyl)-1-[3-(trifluoromethyl)benzyl]-1H-indole-2-carboxylic acid] | 148 to 150 °C | 0.1 to 9.99 nM | – |
| O=C(O)c1c(-c2cc3ccccc3o2)c2ccccc2n1Cc1cccc(C(F)(F)F)c1 [Example 235] | 211 to 214 °C | 0.1 to 9.99 nM | – |
| COc1ccc(-c2c(C(=O)O)n(Cc3cccc(OC)c3)c3c(NC(=O)C4CC4)cccc23)cc1 [Example 302] | 210 °C (dec.) | 10 to 10000 nM | – |
| O=C(O)c1c(/C=C/c2ccccc2)c2ccccc2n1Cc1cccc(C(F)(F)F)c1 [Example 243] | 183 to 185 °C | 0.1 to 9.99 nM | – |
| COc1cccc(Cn2c(C(=O)O)c(-c3cccc(NC(=O)NC4CC4)c3)c3ccccc32)c1 [Example 294] | 110 °C (dec.) | 10 to 10000 nM | – |
| CCOc1ccc(-c2c(C(=O)O)n(Cc3ccc(F)cc3)c3c(NC(=O)C4CC4)cccc23)cc1 [Example 285] | 250 °C | – | – |
| COc1cccc(Cn2c(C(=O)O)c(-c3ccc(OCc4ccc5ccccc5n4)cc3)c3ccccc32)c1 [Example 307] | – | 0.1 to 9.99 nM | – |
| COc1cccc(Cn2c(C(=O)O)c(-c3ccc(OCC(=O)c4ccc(N5CCCC5)cc4)cc3)c3ccccc32)c1 [Example 310] | – | 10 to 10000 nM | – |
| CCOCCOc1ccc2c(c1)c(-c1cccc(OCC3CC3)c1)c(C(=O)O)n2Cc1cccc(OC)c1 [Example 271] | – | 0.1 to 9.99 nM | – |
| COc1cccc(Cn2c(C(=O)O)c(-c3ccc(OCC4CC4)cc3)c3ccccc32)c1 [Example 305, 3-[4-(Cyclopropylmethoxy)phenyl]-1-(3-methoxybenzyl)-1H-indole-2-carboxylic acid] | – | 0.1 to 9.99 nM | – |
| CC(=O)c1cnc(-c2c(C(=O)O)n(Cc3cccc(C(F)(F)F)c3)c3ccccc23)s1 [Example 342] | – | 0.1 to 9.99 nM | – |
| COc1ccc(-c2c(C(=O)O)n(/C=C/c3ccccc3)c3ccccc23)cc1 [Example 349, 1-((1E)-2-Phenylvinyl)-3-(4-methoxyphenyl)indole-2-carboxylate] | – | 0.1 to 9.99 nM | – |
| COc1cccc(Cn2c(C(=O)O)c(-c3ccc(OCC4CC4)cc3)c3cc(OCc4ccc(C(F)(F)F)cc4)ccc32)c1 [Example 319] | – | 10 to 10000 nM | – |
| CCCCOc1ccc2c(c1)c(-c1ccc(OCC3CC3)cc1)c(C(=O)O)n2Cc1cccc(OC)c1 [Example 332] | – | 0.1 to 9.99 nM | – |
| COc1ccc(-c2c(C(=O)O)n(Cc3cccc(C(F)(F)F)c3)c3ccc(OCCCN(C)c4nc5ccccc5o4)cc23)cc1 [Example 234] | – | 0.1 to 9.99 nM | – |
